From patent EP2054020B1, “COSMETIC COMPOSITION COMPRISING PURINE AND/OR A PURINE DERIVATIVE AND TAURINE” (Henkel AG & Co. KGaA, priority 2006, dated 2008)

Assays:
[1] = tested on: HGF; assay: Growth factor release (ELISA) from reconstructed dermal papillae: HGF; type: cell-based; conditions: 24 h, Taurin 0,5 %, Coffein 0,025 %; for HGF-Freisetzung Mittelwert: quadruplicates, compared with untreated Kontrolle = 100, spread in brackets; for Steigerung der HGF-Ausschüttung: increase over untreated control
Description: (§1) Die beiden Wachstumsfaktoren Hepatocyte Growth Factor (HGF) und Keratinocyte Growth Factor (KGF) sind wichtige Regulatoren des Haarzyklus. Bei potentiell wachstumsfördemden und den vorzeitigen Haarverlust vermindernden Substanzen kann von einer Steigerung eines der ausgeschütteten Faktoren ausgegangen werden. Die Ausschüttung von HGF sowie KGF kann mit Hilfe von kommerziell erhältlichen ELISA-Kits quantifiziert werden.
(§2) Die Ergebnisse finden sich in Tabelle 5 wieder. Tabelle 5: KGF- und HGF-Freisetzung in [%] nach Behandlung rekonstruierter dermaler Papillen im Vergleich zu unbehandelten Kontrollen.

[2] = tested on: KGF; assay: Differential gene expression by qRT-PCR in dermal papilla cells: KGF; type: cell-based; conditions: 24 h, Taurin 0,5 %, Coffein 0,025 %; for KGF Mittelwert: untreated Kontrolle = 1, spread in brackets, 4 biological replicates, >=2 or <=0,5 signifikant, >=1,5 or <=0,6 tendenziell; for Expression von KGF: result in words
Description: (§3) Tabelle 2: Untersuchte Lösungen
(§4) Hepatocyte Growth Factor (HGF) und Keratinocyte Growth Factor (KGF) sind wichtige Wachstumsfaktoren, die von den dermalen Papillenzellen synthetisiert werden. Im Speziellen stimuliert HGF das Follikelwachstum und KGF die Keratinozytenproliferation. Entsprechend werden HGF und KGF in der Wachstumsphase vermehrt exprimiert.
(§5) Die differentielle Genexpression wurde mittels quantitatitiver Reverse-Transkription Polymerase Kettenreaktion (qRT-PCR) bestimmt. Nach Anzucht der dermalen Papillenzellen wurden jeweils 4 biologische Replikate für 24 h mit den Lösungen gemäß Tabelle 2 inkubiert. Zur Durchführung der qRT-PCR wird zunächst mit Hilfe des RNeasy Mini Kits der Fa. Qiagen die RNA aus den dermalen Papillenzellen isoliert und mittels reverser Transkription in cDNA umgeschrieben. Bei der anschließenden PCR Reaktion, die mit Hilfe genspezifischer Primer für die jeweiligen haarrelevanten Gene durchgeführt wird und die der Amplifikation der gesuchten Genabschnitte dient, wird die Bildung der PCR-Produkte online über ein Fluoreszenzsignal detektiert. Das Fluoreszenzsignal ist dabei proportional zur Menge des gebildeten PCR-Produktes. Je stärker die Expression eines bestimmten Gens ist, desto größer ist die Menge an gebildetem PCR-Produkt und umso höher ist das Fluoreszenzsignal.
(§6) Zur Quantifizierung der Genexpression wird die unbehandelte Kontrolle gleich 1 gesetzt und die Expression der zu bestimmenden Gene darauf bezogen (x-fache Expression). Dabei werden Werte, die größer/gleich der 2-fachen Expression oder kleiner/gleich der 0,5-fachen Expression der unbehandelten Kontrolle sind als signifikant differentiell exprimiert eingestuft. Werte die größer/gleich der 1,5-fachen Expression oder kleiner/gleich der 0,6-fachen Expression der unbehandelten Kontrolle sind, werden als tendenziell differentiell exprimiert eingestuft. Die Ergebnisse sind in Tabelle 4 zusammengefasst.

[3] = tested on: KGF; assay: Growth factor release (ELISA) from reconstructed dermal papillae: KGF; type: cell-based; conditions: 24 h, Taurin 0,5 %, Coffein 0,025 %; for KGF-Freisetzung Mittelwert: quadruplicates, compared with untreated Kontrolle = 100, spread in brackets; for Steigerung der KGF Ausschüttung: increase over untreated control
Description: as §1, §2

[4] = tested on: HGF; assay: Differential gene expression by qRT-PCR in dermal papilla cells: HGF; type: cell-based; conditions: 24 h, Taurin 0,5 %, Coffein 0,025 %; for HGF Mittelwert: untreated Kontrolle = 1, spread in brackets, 4 biological replicates, >=2 or <=0,5 signifikant, >=1,5 or <=0,6 tendenziell; for Expression von HGF: result in words
Description: as §3, §4, §5, §6

[5] = tested on: IGFBP3; assay: Differential gene expression by qRT-PCR in dermal papilla cells: IGFBP3; type: cell-based; conditions: 24 h, Taurin 0,5 %, Coffein 0,025 %; for IGFBP3 Mittelwert: untreated Kontrolle = 1, spread in brackets, 4 biological replicates, >=2 or <=0,5 signifikant, >=1,5 or <=0,6 tendenziell; for Expression von IGF-BP3: result in words
Description: as §3
Diesen Eigenschaften gegenüber steht die Expression von IGFBP-3. Dieses Genprodukt führt neben Anderen zu einer.Verschiebung des Zyklus von der Wachstums- zur Regressionsphase. Nach Applikation von Substanzen, die Effekte am biologisch aktiven Teil des Haares hervorrufen, könnte die Bestimmung der Veränderungen der Expression dieses Gens Aussagen über Haarwuchsstimulantien oder -inhibitoren liefern.
as §5, §6

[6] = tested on: kultivierte dermale Papillenzellen
Description: Die Bestimmung der Freisetzung von Laktat-Dehydrogenase (LDH) kultivierter Zellen gibt Auskunft über die Schädigung der Zellmembran. In unbeschädigten Zellen ist LDH ausschließlich im Zytoplasma lokalisiert. Erst durch Schädigung der Zellmembran kann LDH in das umgebende Kulturmedium diffundieren. Mit Hilfe eines Substrat-gekoppelten kolorimetrischen Testsystems kann die Menge an freigesetztem LDH bestimmt werden.
Zur Bestimmung möglicher zellschädigender Nebeneffekte wurden kultivierte dermale Papillenzellen mit den in Tabelle 2 aufgeführten Lösungen kultiviert und nach Behandlung die Menge an LDH im Medium analysiert. Es wurde die Zeit bestimmt, die benötigt wird, um eine definierte Menge an Farbstoff umzusetzen. […] Hierbei gilt, dass Werte < 80 % auf mögliche zellschädigende Reaktionen hindeuten.

SMILES | HGF-Freisetzung Mittelwert [1] | Steigerung der HGF-Ausschüttung [1] [%] | KGF Mittelwert [2] | Expression von KGF [2] | KGF-Freisetzung Mittelwert [3] | Steigerung der KGF Ausschüttung [3] [%] | HGF Mittelwert [4] | Expression von HGF [4] | IGFBP3 Mittelwert [5] | Expression von IGF-BP3 [5] | Freisetzung von LDH Mittelwert (%) [6] | zellschädigende Effekte [6]
Cn1c(=O)c2c(ncn2C)n(C)c1=O [Coffein, reference compound] | 170 (35,8) % | 70 | 1,44 (0,13) x-fache Expression | tendenzielle Aktivierung | 119 (9,7) % | 10 | 1,62 (0,46) x-fache Expression | tendenzielle Aktivierung | 0,44 (0,07) x-fache Expression | signifikante Deaktivierung |  | 
NCCS(=O)(=O)O [Taurin, 2-Aminoethansulfonsäure] | 152 (29,9) % | 52 | 1,08 (0,12) x-fache Expression | keinen signifikanten Änderungen | 110(11,5) % | 19 | 1,03 (0,30) x-fache Expression | keinen signifikanten Änderungen | 1,41 (0,18) x-fache Expression | keinen signifikanten Änderungen | 134,1% | weder nach Behandlung mit Taurin oder Coffein allein, noch mit einem Gemisch beider Verbindungen zellschädigende Effekte nachgewiesen werden können
